How the values were obtained:
[1] = system: EGFP linked p53 protein; assay: p53 nuclear translocation assay in SiHa cells; type: cell-based, human; details: for time post treatment at which nuclear translocation was initiated: 25 and 50 μg/mL, increased up to 24 h, SiHa and HeLa not distinguished; for nuclear translocation of EGFP-p53 protein: SiHa cells, 2-50 μg/mL
Procedure: Materials and methods: Two cervical cancer cell lines SiHa and HeLa (ATCC), positive for HPV genome were used. The cell lines were transfected with the expression vector containing p53-EGFP using lipofectamine (Invitrogen, CA, USA). After 48 h of transfection the cells were maintained for 30-45 days in DMEM (Sigma Aldrich, catalogue no. D5546) supplemented with 10% FBS and 800 μg/mL Gen […] (Gibco BRL Life Technologies, Inc) for 30-45 days. The stably expressing cells were used for the p53 Nuclear Translocation Assay. Biological Studies: The stably expressing cells were seeded on 96 well imaging plates (Becton Dickinson, USA) and allowed to grow for 48 h in a humidified CO2 incubator at 37° C. The cell nucleus were stained with vital fluorescent nuclear dye […] (0.5 μg/mL) for 5 minutes followed by fresh medium replacement. A stock solution of 50 mg/mL was prepared in DMSO and further dilutions were made to obtain the concentration of 2-50 μg/mL were made in the culture medium containing 5% FBS. Cells were treated separately with different concentrations (2-50 μg/mL) of Compound A and Compound B. The imaging was carried out at every 12 h using pathway Bio imager (BD, USA) using 20× objective. The cells were segmented based on the nuclear channel and number of cells positive for nuclear-EGFP were calculated to score activity. Alternatively the cells were also imaged with Nikon Ti inverted fluorescent microscope equipped with CCD camera Retiga Exi and NIS element software. The bright field images were also collected.

[2] = system: SiHa (HPV 16 positive cervical cancer) cell line; assay: SiHa human cervical cancer xenograft mouse model; type: in vivo; details: days 1-6 and 12-17, nude mice
Procedure: In vivo efficacy of the compounds of the present invention for the treatment of HPV associated cancer was studied by using SiHa (HPV 16 positive cervical cancer) cell line.
SiHa Human Cervical Cancer Xenograft Mouse Model
Animals used: Nude Nu/J, Homozygous for FOXn1(Nu) male mice, 4 to 6 weeks old, weighing 22 to 25 g (Harlan Laboratories, US). Animals were housed in animal isolator under specified pathogen-free conditions maintained at 22 to 25° C. and 55 to 75% humidity, with a 12-hour light/12-hour dark cycle. The mice were acclimatized for a period of seven days before experimentation. Animals were handled in a laminar flow hood. All food and water was autoclaved.
The adherent SiHa cells (SiHa cell line—ATCC—HBT 35) were harvested using Trypsin-EDTA solution and suspension was centrifuged at 800 rpm for 5 minutes. The supernatant was removed and the cell pellet was re-suspended in 1 mL serum-free MEM medium. […]
Following parameters were observed during treatment: • 1. […] Tumor was measured 2-3 days apart, using vernier caliper.
Tumor volume in mm^3 was calculated using the formula for a prolate ellipsoid: Tumor volume (mm^3)=Length (mm)×[Breadth (mm)^2]×0.5 • assuming specific gravity of tumor as 1 and π as 3
Treated to control ratio (ΔT/ΔC %) on a given day was calculated using the formula:
Growth inhibition (GI) was calculated using the formula GI on Day X=100−ΔT/ΔC% on Day X

Row | Compound | time post treatment at which nuclear translocation was initiated [1] [h] | nuclear translocation of EGFP-p53 protein [1] | tumor growth inhibition ([2]; 35 mg/kg once daily intraperitoneally) | tumor growth inhibition ([2]; 200 mg/kg once daily p.o.)
1 | CN1CC[C@@H](c2c(O)cc(O)c3c(=O)cc(-c4ccccc4Cl)oc23)[C@@H]1CO.Cl [Compound A, (+)-trans-2-(2-Chlorophenyl)-5,7-dihydroxy-8-(2-hydroxymethyl-1-methyl-pyrrolidin-3-yl)-chromen-4-one hydrochloride] | 12 | increased nuclear translocation of EGFP-p53 protein | significant tumor growth inhibition | –
2 | CN1CC[C@@H](c2c(O)cc(O)c3c(=O)cc(-c4ccc(C(F)(F)F)cc4Cl)oc23)[C@@H]1CO.Cl [Compound B, (+)-trans-2-(2-chloro-4-trifluoromethyl-phenyl)-5,7-dihydroxy-8-(2-hydroxymethyl-1-methyl-pyrrolidin-3-yl)-chromen-4-one hydrochloride] | 12 | increased nuclear translocation of EGFP-p53 protein | – | significant tumor growth inhibition

Reference: US12076309B2, “Compounds for the treatment of cancers associated with human papillomavirus” (Piramal Enterprises Limited, priority 2011, dated 2024)
